According to publication PMC10408569, “Recruitment of hexahydroquinoline as anticancer scaffold targeting inhibition of wild and mutants EGFR (EGFR^WT, EGFR^T790M, and EGFR^L858R)” (Journal of Enzyme Inhibition and Medicinal Chemistry, 2023):

Key:
[1] = tested on: K-562; assay: NCI-60 anticancer screening (SRB); format: cell-based; conditions: Homo sapiens, K562; K-562, leukemia; one dose 10 μM; read-out: Growth Inhibition Percentage (GI %)
[2] = target: EGFR^WT (Homo sapiens, UniProt P00533); assay: EGFR kinase inhibitory assay (HTRF)
[3] = tested on: NCI-H522; assay: NCI-60 anticancer screening (SRB); format: cell-based; conditions: Homo sapiens; NCI-H522, NSC lung cancer; one dose 10 μM; read-out: Growth Inhibition Percentage (GI %)
[4] = tested on: OVCAR-8; assay: NCI-60 anticancer screening (SRB); format: cell-based; conditions: Homo sapiens; OVCAR-8, ovarian cancer; one dose 10 μM; read-out: Growth Inhibition Percentage (GI %)
[5] = tested on: IGROV1; assay: NCI-60 anticancer screening (SRB); format: cell-based; conditions: Homo sapiens, IGROV-1; IGROV1, ovarian cancer; one dose 10 μM; read-out: Growth Inhibition Percentage (GI %)
[6] = target: EGFR^L858R (Homo sapiens, UniProt P00533, L858R); assay: biochemical
[7] = tested on: HOP-62; assay: NCI-60 anticancer screening (SRB); format: cell-based; conditions: Homo sapiens; HOP-62, NSC lung cancer; one dose 10 μM; read-out: Growth Inhibition Percentage (GI %)
[8] = tested on: PC-3; assay: NCI-60 anticancer screening (SRB); format: cell-based; conditions: Homo sapiens; PC-3, prostate cancer; one dose 10 μM; read-out: Growth Inhibition Percentage (GI %)
[9] = tested on: HT29; assay: NCI-60 anticancer screening (SRB); format: cell-based; conditions: Homo sapiens, HT-29; HT29, colon cancer; one dose 10 μM; read-out: Growth Inhibition Percentage (GI %)
[10] = tested on: RXF 393; assay: NCI-60 anticancer screening (SRB); format: cell-based; conditions: Homo sapiens; RXF 393, renal cancer; one dose 10 μM; read-out: Growth Inhibition Percentage (GI %)
[11] = tested on: SF-539; assay: NCI-60 anticancer screening (SRB); format: cell-based; conditions: Homo sapiens; SF-539, CNS cancer; one dose 10 μM; read-out: Growth Inhibition Percentage (GI %)
[12] = target: EGFR^T790M (Homo sapiens, UniProt P00533, T790M); assay: biochemical
[13] = tested on: HS 578T; assay: NCI-60 anticancer screening (SRB); format: cell-based; conditions: Homo sapiens; HS 578T, breast cancer; one dose 10 μM; read-out: Growth Inhibition Percentage (GI %)
[14] = tested on: UO-31; assay: NCI-60 anticancer screening (SRB); format: cell-based; conditions: Homo sapiens; UO-31, renal cancer; one dose 10 μM; read-out: Growth Inhibition Percentage (GI %)
[15] = tested on: UACC-62; assay: NCI-60 anticancer screening (SRB); format: cell-based; conditions: Homo sapiens; UACC-62, melanoma; one dose 10 μM; read-out: Growth Inhibition Percentage (GI %)
[16] = tested on: NCI-H460; assay: NCI-60 anticancer screening (SRB); format: cell-based; conditions: Homo sapiens; NCI-H460, NSC lung cancer; one dose 10 μM; read-out: Growth Inhibition Percentage (GI %)
[17] = tested on: DU-145; assay: NCI-60 anticancer screening (SRB); format: cell-based; conditions: Homo sapiens; DU-145, prostate cancer; one dose 10 μM; read-out: Growth Inhibition Percentage (GI %)
[18] = tested on: SF-295; assay: NCI-60 anticancer screening (SRB); format: cell-based; conditions: Homo sapiens; SF-295, CNS cancer; one dose 10 μM; read-out: Growth Inhibition Percentage (GI %)
[19] = tested on: MOLT-4; assay: NCI-60 anticancer screening (SRB); format: cell-based; conditions: Homo sapiens; MOLT-4, leukemia; one dose 10 μM; read-out: Growth Inhibition Percentage (GI %)
[20] = tested on: NCI 60 cancer cell lines; assay: NCI-60 anticancer screening (SRB), whole panel; format: cell-based, human; conditions: mean across the NCI-60 panel; one dose 10 μM
[21] = tested on: COLO 205; assay: NCI-60 anticancer screening (SRB); format: cell-based; conditions: Homo sapiens; COLO 205, colon cancer; one dose 10 μM; read-out: Growth Inhibition Percentage (GI %)
[22] = tested on: HCT-15; assay: NCI-60 anticancer screening (SRB); format: cell-based; conditions: Homo sapiens; HCT-15, colon cancer; one dose 10 μM; read-out: Growth Inhibition Percentage (GI %)
[23] = tested on: MCF7; assay: NCI-60 anticancer screening (SRB); format: cell-based; conditions: Homo sapiens; MCF7, breast cancer; one dose 10 μM; read-out: Growth Inhibition Percentage (GI %)
[24] = tested on: HCT-116; assay: NCI-60 anticancer screening (SRB); format: cell-based; conditions: Homo sapiens; HCT-116, colon cancer; one dose 10 μM; read-out: Growth Inhibition Percentage (GI %)
[25] = tested on: M14; assay: NCI-60 anticancer screening (SRB); format: cell-based; conditions: Homo sapiens; M14, melanoma; one dose 10 μM; read-out: Growth Inhibition Percentage (GI %)
[26] = tested on: NCI/ADR-RES; assay: NCI-60 anticancer screening (SRB); format: cell-based; conditions: Homo sapiens, ovarian cancer, one dose 10 μM, read-out: Growth Inhibition Percentage (GI %)
[27] = tested on: UACC-257; assay: NCI-60 anticancer screening (SRB); format: cell-based; conditions: Homo sapiens; UACC-257, melanoma; one dose 10 μM; read-out: Growth Inhibition Percentage (GI %)
[28] = tested on: MDA-MB-435; assay: NCI-60 anticancer screening (SRB); format: cell-based; conditions: Homo sapiens; MDA-MB-435, melanoma; one dose 10 μM; read-out: Growth Inhibition Percentage (GI %)
[29] = tested on: SF-268; assay: NCI-60 anticancer screening (SRB); format: cell-based; conditions: Homo sapiens; SF-268, CNS cancer; one dose 10 μM; read-out: Growth Inhibition Percentage (GI %)
[30] = tested on: HL-60(TB); assay: NCI-60 anticancer screening (SRB); format: cell-based; conditions: Homo sapiens, leukemia, one dose 10 μM, read-out: Growth Inhibition Percentage (GI %)

EGFR^WT, sequence (P00533 25-1210): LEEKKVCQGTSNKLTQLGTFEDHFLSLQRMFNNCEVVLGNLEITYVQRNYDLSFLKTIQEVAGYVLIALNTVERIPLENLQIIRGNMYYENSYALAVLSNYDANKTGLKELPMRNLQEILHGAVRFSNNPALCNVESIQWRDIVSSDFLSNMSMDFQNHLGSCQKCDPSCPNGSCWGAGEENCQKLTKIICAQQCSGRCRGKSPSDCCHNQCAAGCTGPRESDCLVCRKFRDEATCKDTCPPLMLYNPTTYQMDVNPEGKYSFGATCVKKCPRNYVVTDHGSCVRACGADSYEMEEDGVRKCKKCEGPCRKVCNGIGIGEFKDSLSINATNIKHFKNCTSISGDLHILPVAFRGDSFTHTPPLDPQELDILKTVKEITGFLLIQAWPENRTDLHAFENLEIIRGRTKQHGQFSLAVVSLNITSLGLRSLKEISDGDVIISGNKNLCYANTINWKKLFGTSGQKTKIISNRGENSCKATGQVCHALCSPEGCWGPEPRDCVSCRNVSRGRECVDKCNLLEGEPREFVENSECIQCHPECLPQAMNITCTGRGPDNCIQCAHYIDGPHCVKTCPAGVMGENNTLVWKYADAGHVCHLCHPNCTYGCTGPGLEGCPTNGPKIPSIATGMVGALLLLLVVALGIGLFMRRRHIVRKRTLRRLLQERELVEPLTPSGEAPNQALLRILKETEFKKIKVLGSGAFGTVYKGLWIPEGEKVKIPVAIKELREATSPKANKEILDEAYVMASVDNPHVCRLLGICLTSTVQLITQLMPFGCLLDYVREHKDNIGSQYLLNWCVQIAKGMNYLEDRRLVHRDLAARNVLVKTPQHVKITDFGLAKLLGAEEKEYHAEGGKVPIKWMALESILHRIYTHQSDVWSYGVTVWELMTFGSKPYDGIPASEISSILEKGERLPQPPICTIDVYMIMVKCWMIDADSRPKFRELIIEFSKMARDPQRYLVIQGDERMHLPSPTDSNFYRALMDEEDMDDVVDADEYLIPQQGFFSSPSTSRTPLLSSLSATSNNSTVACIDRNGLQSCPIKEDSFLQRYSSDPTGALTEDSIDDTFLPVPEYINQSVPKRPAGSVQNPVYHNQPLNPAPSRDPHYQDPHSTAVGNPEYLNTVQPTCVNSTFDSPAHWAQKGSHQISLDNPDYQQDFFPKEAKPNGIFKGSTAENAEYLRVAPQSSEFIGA
EGFR^L858R, sequence (P00533 25-1210 L858R): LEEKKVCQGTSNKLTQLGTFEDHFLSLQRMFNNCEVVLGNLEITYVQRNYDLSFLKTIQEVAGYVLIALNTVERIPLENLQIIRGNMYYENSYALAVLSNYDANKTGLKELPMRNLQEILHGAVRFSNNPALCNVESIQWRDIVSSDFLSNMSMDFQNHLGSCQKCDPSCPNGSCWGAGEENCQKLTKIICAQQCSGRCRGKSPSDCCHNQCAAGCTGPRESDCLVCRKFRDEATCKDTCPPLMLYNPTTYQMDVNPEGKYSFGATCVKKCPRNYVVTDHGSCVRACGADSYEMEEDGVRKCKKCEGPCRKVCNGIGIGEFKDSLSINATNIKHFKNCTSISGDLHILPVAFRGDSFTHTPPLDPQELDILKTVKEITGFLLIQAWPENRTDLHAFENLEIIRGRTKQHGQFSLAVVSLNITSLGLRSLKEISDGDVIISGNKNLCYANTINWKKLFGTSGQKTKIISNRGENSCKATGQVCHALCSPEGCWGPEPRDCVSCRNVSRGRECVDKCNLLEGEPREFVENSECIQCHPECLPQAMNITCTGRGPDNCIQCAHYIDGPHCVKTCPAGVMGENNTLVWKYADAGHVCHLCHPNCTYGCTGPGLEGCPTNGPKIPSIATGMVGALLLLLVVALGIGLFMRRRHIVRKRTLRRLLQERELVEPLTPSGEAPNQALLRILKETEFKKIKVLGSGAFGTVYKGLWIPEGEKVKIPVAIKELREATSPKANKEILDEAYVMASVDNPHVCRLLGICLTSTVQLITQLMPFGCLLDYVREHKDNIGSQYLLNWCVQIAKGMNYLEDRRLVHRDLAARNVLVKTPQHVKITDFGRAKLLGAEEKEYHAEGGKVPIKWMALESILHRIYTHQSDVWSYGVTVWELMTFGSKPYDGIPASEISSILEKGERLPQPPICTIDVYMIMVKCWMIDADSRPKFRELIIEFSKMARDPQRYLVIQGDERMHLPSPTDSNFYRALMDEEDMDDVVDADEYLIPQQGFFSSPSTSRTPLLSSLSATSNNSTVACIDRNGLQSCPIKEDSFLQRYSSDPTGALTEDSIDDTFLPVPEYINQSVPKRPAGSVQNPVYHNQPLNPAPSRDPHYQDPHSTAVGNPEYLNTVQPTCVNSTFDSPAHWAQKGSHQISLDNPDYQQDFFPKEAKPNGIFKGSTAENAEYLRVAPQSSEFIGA
EGFR^T790M, sequence (P00533 25-1210 T790M): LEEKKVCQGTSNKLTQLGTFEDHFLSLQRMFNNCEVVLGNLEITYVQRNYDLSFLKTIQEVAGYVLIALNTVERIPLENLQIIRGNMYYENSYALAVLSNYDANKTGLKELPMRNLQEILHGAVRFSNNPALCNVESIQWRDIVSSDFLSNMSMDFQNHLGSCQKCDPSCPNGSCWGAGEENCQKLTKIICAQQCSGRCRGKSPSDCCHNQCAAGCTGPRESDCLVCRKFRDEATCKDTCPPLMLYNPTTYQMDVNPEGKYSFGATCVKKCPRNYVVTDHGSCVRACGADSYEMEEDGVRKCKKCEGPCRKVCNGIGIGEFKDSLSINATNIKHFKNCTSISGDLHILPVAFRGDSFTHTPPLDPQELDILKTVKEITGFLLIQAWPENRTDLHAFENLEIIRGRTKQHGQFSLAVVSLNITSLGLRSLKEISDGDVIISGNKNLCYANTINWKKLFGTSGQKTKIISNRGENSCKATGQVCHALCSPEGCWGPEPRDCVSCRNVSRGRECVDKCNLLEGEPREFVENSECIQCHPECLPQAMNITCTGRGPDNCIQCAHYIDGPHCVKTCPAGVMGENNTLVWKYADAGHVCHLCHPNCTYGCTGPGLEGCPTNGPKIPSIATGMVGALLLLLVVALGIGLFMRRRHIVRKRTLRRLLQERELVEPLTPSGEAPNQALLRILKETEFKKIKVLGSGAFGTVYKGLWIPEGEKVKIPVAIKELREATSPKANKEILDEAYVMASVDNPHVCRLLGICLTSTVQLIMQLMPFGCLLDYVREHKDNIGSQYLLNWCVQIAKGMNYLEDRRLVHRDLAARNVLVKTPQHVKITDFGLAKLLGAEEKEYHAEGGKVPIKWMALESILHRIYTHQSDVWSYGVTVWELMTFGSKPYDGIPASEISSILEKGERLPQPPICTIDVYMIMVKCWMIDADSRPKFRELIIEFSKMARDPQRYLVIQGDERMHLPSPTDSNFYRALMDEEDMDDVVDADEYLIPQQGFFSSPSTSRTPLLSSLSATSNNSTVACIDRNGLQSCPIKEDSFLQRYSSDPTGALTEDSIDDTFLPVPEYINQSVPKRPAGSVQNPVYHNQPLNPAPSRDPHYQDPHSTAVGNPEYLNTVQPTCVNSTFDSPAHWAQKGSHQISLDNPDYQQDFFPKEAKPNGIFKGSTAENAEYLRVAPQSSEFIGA

SMILES | inhibition at 10 µM [1] [%] | IC50 [2] [nM] | inhibition at 10 µM [3] [%] | inhibition at 10 µM [4] [%] | inhibition at 10 µM [5] [%] | IC50 [6] [nM] | inhibition at 10 µM [7] [%] | inhibition at 10 µM [8] [%] | inhibition at 10 µM [9] [%] | inhibition at 10 µM [10] [%] | inhibition at 10 µM [11] [%] | IC50 [12] [nM] | inhibition at 10 µM [13] [%] | inhibition at 10 µM [14] [%] | inhibition at 10 µM [15] [%] | inhibition at 10 µM [16] [%] | inhibition at 10 µM [17] [%] | melting point [°C] | inhibition at 10 µM [18] [%] | inhibition at 10 µM [19] [%] | other results
CCOC(=O)C1=C(N)N(c2ccccc2)C2=C(C(=O)CC(C)(C)C2)C1c1ccccc1Cl (racemic) [6a, (±)-Ethyl 2-amino-4–(2-chlorophenyl)-7,7-dimethyl-5-oxo-1-phenyl-1,4,5,6,7,8-hexahydroquinoline-3-carboxylate] | 59 | 358 ± 160 | 43 | 17 | < 10 | 490 ± 4 | < 10 | 71 | 45 | 22 | < 10 | 610 ± 5 | < 10 | 45 | 56 | 40 | 12 | 168 to 170 | 25 | 75 | GI % mean [20]: 33%; inhibition at 10 µM [21]: 35%; inhibition at 10 µM [22]: 51%; inhibition at 10 µM [23]: 44%; inhibition at 10 µM [24]: 59%; inhibition at 10 µM [25]: 50%; inhibition at 10 µM [26]: 27%; inhibition at 10 µM [27]: 28%; inhibition at 10 µM [28]: 27%; inhibition at 10 µM [29]: 20%; inhibition at 10 µM [30]: 123%
CCOC(=O)C1=C(N)N(c2ccc(Cl)cc2)C2=C(C(=O)CC(C)(C)C2)C1c1ccc(F)cc1 (racemic) [8b, (±)-Ethyl 2-amino-1–(4-chlorophenyl)-4–(4-fluoroyphenyl)-7,7-dimethyl-5-oxo-1,4,5,6,7,8-hexahydroquinoline-3-carboxylate] | < 10 | 186 ± 100 | 40 | 13 | < 10 | 770 ± 6 | < 10 | 35 | 39 | 17 | < 10 | 650 ± 4 | < 10 | 30 | 40 | < 10 | < 10 | 256 to 258 | 12 | < 10 | GI % mean [20]: 14%; inhibition at 10 µM [21]: 13%; inhibition at 10 µM [22]: 34%; inhibition at 10 µM [23]: 25%; inhibition at 10 µM [24]: 34%; inhibition at 10 µM [25]: 14%; inhibition at 10 µM [26]: 12%; inhibition at 10 µM [27]: 11%; inhibition at 10 µM [28]: 11%; inhibition at 10 µM [29]: < 10%; inhibition at 10 µM [30]: 32%
CCOC(=O)C1=C(N)N(c2ccc(Cl)cc2)C2=C(C(=O)CC(C)(C)C2)C1c1ccc(Cl)cc1 (racemic) [8e, (±)-Ethyl 2-amino-1,4-bis (4-chlorophenyl)-7,7-dimethyl-5-oxo-1,4,5,6,7,8-hexahydroquinoline-3-carboxylate] | 63 | 300 ± 120 | 19 | 30 | 12 | 351 ± 2 | < 10 | 58 | 46 | 35 | 26 | 693 ± 5 | 44 | 34 | 28 | 59 | 12 | 220 to 222 | 33 | 89 | GI % mean [20]: 32%; inhibition at 10 µM [21]: 53%; inhibition at 10 µM [22]: 58%; inhibition at 10 µM [23]: 56%; inhibition at 10 µM [24]: 45%; inhibition at 10 µM [25]: 49%; inhibition at 10 µM [26]: 32%; inhibition at 10 µM [27]: 56%; inhibition at 10 µM [28]: 54%; inhibition at 10 µM [29]: 22%; inhibition at 10 µM [30]: 62%
CCOC(=O)C1=C(N)N(c2ccccc2)C2=C(C(=O)CC(C)(C)C2)C1c1ccc(Cl)cc1 (racemic) [8c, (±)-Ethyl 2-amino-4–(4-chlorophenyl)-7,7-dimethyl-5-oxo-1-phenyl-1,4,5,6,7,8-hexahydroquinoline-3-carboxylate] | 82 | 194 ± 90 | 62 | 39 | 40 | 812 ± 5 | 19 | 78 | 65 | < 10 | 64 | 820 ± 6 | 28 | 71 | 78 | 87 | 42 | 215 to 217 | 79 | 99 | GI % mean [20]: 63%; inhibition at 10 µM [21]: 118%; inhibition at 10 µM [22]: 85%; inhibition at 10 µM [23]: 83%; inhibition at 10 µM [24]: 81%; inhibition at 10 µM [25]: 72%; inhibition at 10 µM [26]: 74%; inhibition at 10 µM [27]: 72%; inhibition at 10 µM [28]: 78%; inhibition at 10 µM [29]: 42%; inhibition at 10 µM [30]: 94%
CCOC(=O)C1=C(N)N(c2ccc(Cl)cc2)C2=C(C(=O)CC(C)(C)C2)C1c1ccccc1OC (racemic) [6i, (±)-Ethyl 2-amino-1–(4-chlorophenyl)-4–(2-methoxyphenyl)-7,7-dimethyl-5-oxo-1,4,5,6,7,8-hexahydroquinoline-3-carboxylate] | 66 | 157 ± 30 | 43 | 12 | 27 | 230 ± 1 | < 10 | 68 | 44 | < 10 | 31 | 450 ± 3 | 32 | 43 | 44 | 51 | < 10 | 228 to 230 | 41 | 89 | GI % mean [20]: 36%; inhibition at 10 µM [21]: 50%; inhibition at 10 µM [22]: 59%; inhibition at 10 µM [23]: 65%; inhibition at 10 µM [24]: 65%; inhibition at 10 µM [25]: 49%; inhibition at 10 µM [26]: 40%; inhibition at 10 µM [27]: 44%; inhibition at 10 µM [28]: 51%; inhibition at 10 µM [29]: 27%; inhibition at 10 µM [30]: 69%
